Data on 17 molecules can be found in US20220257775A1 (GLYCOMIMETICS, INC., priority 2019, published 2022).

In the experiment the target is T1, recombinant human E-selectin/CD63E Fc Chimera (Homo sapiens, UniProt P16581).
T1 construct: Fc (human IgG Fc fusion partner); purchased R & D systems
T1 sequence (P16581 with tags, fused parts or gaps limits assumed): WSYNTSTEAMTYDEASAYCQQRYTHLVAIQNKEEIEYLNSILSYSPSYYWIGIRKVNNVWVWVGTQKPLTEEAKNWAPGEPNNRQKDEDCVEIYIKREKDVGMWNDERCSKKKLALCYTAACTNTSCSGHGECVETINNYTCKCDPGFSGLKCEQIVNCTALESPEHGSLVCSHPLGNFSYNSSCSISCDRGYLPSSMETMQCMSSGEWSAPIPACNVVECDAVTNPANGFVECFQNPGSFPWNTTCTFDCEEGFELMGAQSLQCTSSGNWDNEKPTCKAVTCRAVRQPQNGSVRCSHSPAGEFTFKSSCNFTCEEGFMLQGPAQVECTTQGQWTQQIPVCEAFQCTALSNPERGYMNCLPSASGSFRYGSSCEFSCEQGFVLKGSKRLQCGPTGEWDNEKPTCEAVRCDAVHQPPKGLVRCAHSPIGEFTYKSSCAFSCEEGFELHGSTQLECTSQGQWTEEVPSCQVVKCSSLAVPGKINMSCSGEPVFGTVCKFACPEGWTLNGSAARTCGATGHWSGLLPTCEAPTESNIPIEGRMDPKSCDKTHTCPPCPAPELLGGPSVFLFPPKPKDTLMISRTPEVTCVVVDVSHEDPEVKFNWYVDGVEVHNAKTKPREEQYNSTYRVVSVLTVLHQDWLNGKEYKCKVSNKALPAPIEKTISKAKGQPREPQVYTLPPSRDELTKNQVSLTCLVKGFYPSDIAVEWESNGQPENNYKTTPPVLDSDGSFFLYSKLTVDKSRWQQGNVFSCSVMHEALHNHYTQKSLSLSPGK
As to the kind of experiment: E-Selectin Activity - Analysis by SPR. The following applies: Biacore X100, E-selectin captured on anti-human IgG (Fc) chip. Type of experiment: binding. The method, then:
Surface Plasmon Resonance (SPR) measurements were performed on a Biacore X100 instrument (GE Healthcare). A CM5 sensor chip (GE Healthcare) was used for the interaction between E-selectin and GMI compound. Anti-human IgG (Fc) antibody (GE Healthcare) was immobilized onto the chip by amine coupling according to the manufacturer's instructions. In brief, after a 7-min injection (flow rate of 5 μl/min) of 1:1 mixture of N-ethyl-N′-(3-dimethylaminopropyl) carbodiimide hydrochloride and N-hydroxysuccinimide, anti-human IgG (Fc) antibody (25 μg/ml in 10 mM sodium acetate buffer, pH 5.0) was injected using a 6-min injection at 5 μl/min. Remaining activated groups were blocked by injecting 1 M ethanolamine/HCl, pH 8.5. The recombinant human E-selectin/CD63E Fc Chimera (50 μg/ml) (R & D systems) was injected into the experimental cell until 6000-7000 RU was captured onto the antibody surface. No recombinant human E-selectin/CD63E was injected into the control cell. Increasing concentrations of GMI compound samples were injected at 30 μl/min into both flow cells and all sensorgrams were recorded against the control. Regeneration of the anti-human IgG (Fc) surface was achieved by injecting 3M magnesium chloride, followed by 50 mM sodium hydroxide. Data were analyzed using Biacore X100 evaluation/BIA evaluation 4.1.1 software (GE Healthcare) and Graphad prism 6 software.
In general, Kd refers to the concentration at which binding is half-saturated. In the case of `CC[C@H]1C[C@@H](C(=O)OC)C[C@@H](O[C@@H]2O[C@H](CO)[C@H](O)[C@H](O[C@@H](CC3CCCCC3)C(=O)O)[C@H]2NC(C)=O)[C@@H]1O[C@@H]1O[C@@H](C)[C@@H](O)[C@@H](O)[C@@H]1O` [Compound 3, reference compound], the Kd amounted to 2260 nM.

On to `CC[C@H]1CC(C(=O)NCCNC(=O)CCC(=O)NCCNC(=O)[C@@H]2C[C@H](CC)[C@@H](O[C@@H]3O[C@@H](C)[C@@H](O)[C@@H](O)[C@@H]3O)[C@H](O[C@@H]3O[C@H](CO)[C@H](O)[C@H](O[C@@H](CC4CCCCC4)C(=O)O)[C@H]3NC(C)=O)C2)C[C@@H](O[C@@H]2O[C@H](CO)[C@H](O)[C@H](O[C@@H](CC3CCCCC3)C(=O)O)[C@H]2NC(C)=O)[C@@H]1O[C@@H]1O[C@@H](C)[C@@H](O)[C@@H](O)[C@@H]1O` (some centres unmarked) [Compound 19], for which the dissociation constant Kd worked out at 10.2 nM.

With `CCC1CC(C(=O)NCCNC(=O)c2cn(CCOCCOCCOCCn3cc(C(=O)NCCNC(=O)C4CC(CC)C(OC5OC(C)C(O)C(O)C5O)C(OC5OC(CO)C(O)C(OC(CC6CCCCC6)C(=O)N6CCC6)C5NC(C)=O)C4)nn3)nn2)CC(OC2OC(CO)C(O)C(OC(CC3CCCCC3)C(=O)N3CCC3)C2NC(C)=O)C1OC1OC(C)C(O)C(O)C1O` (centres unmarked) [Compound 29], the Kd was 3.2 nM.

On to `CC[C@H]1C[C@@H](C(=O)NCCNC(=O)c2cn(CCOCCOCCn3cc(C(=O)NCCNC(=O)[C@@H]4C[C@H](CC)[C@@H](O[C@@H]5O[C@@H](C)[C@@H](O)[C@@H](O)[C@@H]5O)[C@H](O[C@@H]5O[C@H](CO)[C@H](O)[C@H](O[C@@H](CC6CCCCC6)C(=O)O)[C@H]5NC(C)=O)C4)nn3)nn2)C[C@@H](O[C@@H]2O[C@H](CO)[C@H](O)[C@H](O[C@@H](CC3CCCCC3)C(=O)O)[C@H]2NC(C)=O)[C@@H]1O[C@@H]1O[C@@H](C)[C@@H](O)[C@@H](O)[C@@H]1O` [Compound 28], for which the Kd was determined as 3.2 nM.

Take `CCC1CC(C(=O)NCCNC(=O)CCC(=O)NCCN(CCNC(=O)CCC(=O)NCCNC(=O)C2CC(CC)C(OC3OC(C)C(O)C(O)C3O)C(OC3OC(CO)C(O)C(OC(CC4CCCCC4)C(=O)O)C3NC(C)=O)C2)CCNC(=O)CCC(=O)NCCNC(=O)C2CC(CC)C(OC3OC(C)C(O)C(O)C3O)C(OC3OC(CO)C(O)C(OC(CC4CCCCC4)C(=O)O)C3NC(C)=O)C2)CC(OC2OC(CO)C(O)C(OC(CC3CCCCC3)C(=O)O)C2NC(C)=O)C1OC1OC(C)C(O)C(O)C1O` (centres unmarked) [Compound 42]: the equilibrium dissociation constant (Kd) is 1.5 nM.

For `CC[C@H]1C[C@@H](C(=O)NCCNC(=O)CCOCCOCCOCCOCCOCCOCCOCCOCCOCCOCCOCCOCCOCCC(=O)NCCNC(=O)[C@@H]2C[C@H](CC)[C@@H](O[C@@H]3O[C@@H](C)[C@@H](O)[C@@H](O)[C@@H]3O)[C@H](O[C@@H]3O[C@H](CO)[C@H](O)[C@H](O[C@@H](CC4CCCCC4)C(=O)O)[C@H]3NC(C)=O)C2)C[C@@H](O[C@@H]2O[C@H](CO)[C@H](O)[C@H](O[C@@H](CC3CCCCC3)C(=O)O)[C@H]2NC(C)=O)[C@@H]1O[C@@H]1O[C@@H](C)[C@@H](O)[C@@H](O)[C@@H]1O` [Compound 14], the dissociation constant Kd turned out to be 6.6 nM.

Regarding `CC[C@H]1C[C@@H](C(=O)NCCNC(=O)CCOCCOCCOCCOCCC(=O)NCCNC(=O)[C@@H]2C[C@H](CC)[C@@H](O[C@@H]3O[C@@H](C)[C@@H](O)[C@@H](O)[C@@H]3O)[C@H](O[C@@H]3O[C@H](CO)[C@H](O)[C@H](O[C@@H](CC4CCCCC4)C(=O)N4CCC4)[C@H]3NC(C)=O)C2)C[C@@H](O[C@@H]2O[C@H](CO)[C@H](O)[C@H](O[C@@H](CC3CCCCC3)C(=O)N3CCC3)[C@H]2NC(C)=O)[C@@H]1O[C@@H]1O[C@@H](C)[C@@H](O)[C@@H](O)[C@@H]1O` [Compound 23], the Kd worked out at 2.8 nM.

As for `CC[C@H]1C[C@@H](C(=O)NCCNC(=O)CCOCCOCCOCCOCCC(=O)NCCNC(=O)[C@@H]2C[C@H](CC)[C@@H](O[C@@H]3O[C@@H](C)[C@@H](O)[C@@H](O)[C@@H]3O)[C@H](O[C@@H]3O[C@H](CO)[C@H](O)[C@H](O[C@@H](CC4CCCCC4)C(=O)O)[C@H]3NC(C)=O)C2)C[C@@H](O[C@@H]2O[C@H](CO)[C@H](O)[C@H](O[C@@H](CC3CCCCC3)C(=O)O)[C@H]2NC(C)=O)[C@@H]1O[C@@H]1O[C@@H](C)[C@@H](O)[C@@H](O)[C@@H]1O` [Compound 17], the Kd is 5.1 nM.

In the case of `CC[C@H]1C[C@@H](C(=O)NCCNC(=O)CCOCCOCCC(=O)NCCNC(=O)[C@@H]2C[C@H](CC)[C@@H](O[C@@H]3O[C@@H](C)[C@@H](O)[C@@H](O)[C@@H]3O)[C@H](O[C@@H]3O[C@H](CO)[C@H](O)[C@H](O[C@@H](CC4CCCCC4)C(=O)N4CCC4)[C@H]3NC(C)=O)C2)C[C@@H](O[C@@H]2O[C@H](CO)[C@H](O)[C@H](O[C@@H](CC3CCCCC3)C(=O)N3CCC3)[C@H]2NC(C)=O)[C@@H]1O[C@@H]1O[C@@H](C)[C@@H](O)[C@@H](O)[C@@H]1O` [Compound 25], the Kd was 3 nM.

Regarding `CC[C@H]1C[C@@H](C(=O)NCCNC(=O)Cn2cc(C(=O)NCCNC(=O)[C@@H]3C[C@H](CC)[C@@H](O[C@@H]4O[C@@H](C)[C@@H](O)[C@@H](O)[C@@H]4O)[C@H](O[C@@H]4O[C@H](CO)[C@H](O)[C@H](O[C@@H](CC5CCCCC5)C(=O)O)[C@H]4NC(C)=O)C3)nn2)C[C@@H](O[C@@H]2O[C@H](CO)[C@H](O)[C@H](O[C@@H](CC3CCCCC3)C(=O)O)[C@H]2NC(C)=O)[C@@H]1O[C@@H]1O[C@@H](C)[C@@H](O)[C@@H](O)[C@@H]1O` [Compound 31], the Kd stood at 3.3 nM.

As to `CCC1CC(C(=O)NCCNC(=O)c2cn(CCOCCC(=O)NCCCC[C@H](NC(=O)CCOCCn3cc(C(=O)NCCNC(=O)C4CC(CC)[C@@H](O[C@@H]5OC(C)[C@@H](O)[C@H](O)C5O)[C@H](O[C@@H]5O[C@@H](CO)[C@H](O)C(O[C@@H](CC6CCCCC6)C(=O)O)C5NC(C)=O)C4)nn3)C(=O)O)nn2)C[C@@H](O[C@@H]2O[C@@H](CO)[C@H](O)C(O[C@@H](CC3CCCCC3)C(=O)O)C2NC(C)=O)[C@@H]1O[C@@H]1OC(C)[C@@H](O)[C@H](O)C1O` (some centres unmarked) [Compound 38], the Kd is 6.4 nM.

Regarding `CC[C@H]1C[C@@H](C(=O)NCCNC(=O)CCOCCOCCOCCOCCOCCOCCOCCOCCOCCOCCC(=O)NCCNC(=O)[C@@H]2C[C@H](CC)[C@@H](O[C@@H]3O[C@@H](C)[C@@H](O)[C@@H](O)[C@@H]3O)[C@H](O[C@@H]3O[C@H](CO)[C@H](O)[C@H](O[C@@H](CC4CCCCC4)C(=O)N(C)C)[C@H]3NC(C)=O)C2)C[C@@H](O[C@@H]2O[C@H](CO)[C@H](O)[C@H](O[C@@H](CC3CCCCC3)C(=O)N(C)C)[C@H]2NC(C)=O)[C@@H]1O[C@@H]1O[C@@H](C)[C@@H](O)[C@@H](O)[C@@H]1O` [Compound 21], the Kd was found to be 18.3 nM.

Turning to `CC[C@H]1C[C@@H](C(=O)NCCNC(=O)NCCNC(=O)[C@@H]2C[C@H](CC)[C@@H](O[C@@H]3O[C@@H](C)[C@@H](O)[C@@H](O)[C@@H]3O)[C@H](O[C@@H]3O[C@H](CO)[C@H](O)[C@H](O[C@@H](CC4CCCCC4)C(=O)O)[C@H]3NC(C)=O)C2)C[C@@H](O[C@@H]2O[C@H](CO)[C@H](O)[C@H](O[C@@H](CC3CCCCC3)C(=O)O)[C@H]2NC(C)=O)[C@@H]1O[C@@H]1O[C@@H](C)[C@@H](O)[C@@H](O)[C@@H]1O` [Compound 32], the Kd came out at 8.8 nM.

For the molecule `CC[C@H]1C[C@@H](C(=O)NCCNC(=O)CCOCCOCCOCCOCCOCCOCCOCCOCCOCCOCCC(=O)NCCNC(=O)[C@@H]2C[C@H](CC)[C@@H](O[C@@H]3O[C@@H](C)[C@@H](O)[C@@H](O)[C@@H]3O)[C@H](O[C@@H]3O[C@H](CO)[C@H](O)[C@H](O[C@@H](CC4CCCCC4)C(=O)O)[C@H]3NC(C)=O)C2)C[C@@H](O[C@@H]2O[C@H](CO)[C@H](O)[C@H](O[C@@H](CC3CCCCC3)C(=O)O)[C@H]2NC(C)=O)[C@@H]1O[C@@H]1O[C@@H](C)[C@@H](O)[C@@H](O)[C@@H]1O` [Compound 15], the equilibrium dissociation constant (Kd) turned out to be 6 nM.

Take `CC[C@H]1C[C@@H](C(=O)NCCNC(=O)CCOCCOCCOCCOCCOCCOCCC(=O)NCCNC(=O)[C@@H]2C[C@H](CC)[C@@H](O[C@@H]3O[C@@H](C)[C@@H](O)[C@@H](O)[C@@H]3O)[C@H](O[C@@H]3O[C@H](CO)[C@H](O)[C@H](O[C@@H](CC4CCCCC4)C(=O)O)[C@H]3NC(C)=O)C2)C[C@@H](O[C@@H]2O[C@H](CO)[C@H](O)[C@H](O[C@@H](CC3CCCCC3)C(=O)O)[C@H]2NC(C)=O)[C@@H]1O[C@@H]1O[C@@H](C)[C@@H](O)[C@@H](O)[C@@H]1O` [Compound 16]: the Kd was found to be 6 nM.

For `CC[C@H]1C[C@@H](C(=O)NCCNC(=O)CCOCCOCCOCCOCCOCCOCCC(=O)NCCNC(=O)[C@@H]2C[C@H](CC)[C@@H](O[C@@H]3O[C@@H](C)[C@@H](O)[C@@H](O)[C@@H]3O)[C@H](O[C@@H]3O[C@H](CO)[C@H](O)[C@H](O[C@@H](CC4CCCCC4)C(=O)N4CCC4)[C@H]3NC(C)=O)C2)C[C@@H](O[C@@H]2O[C@H](CO)[C@H](O)[C@H](O[C@@H](CC3CCCCC3)C(=O)N3CCC3)[C@H]2NC(C)=O)[C@@H]1O[C@@H]1O[C@@H](C)[C@@H](O)[C@@H](O)[C@@H]1O` [Compound 24], the Kd worked out at 2.4 nM.

Take `CC[C@H]1C[C@@H](C(=O)NCCNC(=O)CCOCCOCCOCCOCCOCCOCCOCCOCCOCCOCCC(=O)NCCNC(=O)[C@@H]2C[C@H](CC)[C@@H](O[C@@H]3O[C@@H](C)[C@@H](O)[C@@H](O)[C@@H]3O)[C@H](O[C@@H]3O[C@H](CO)[C@H](O)[C@H](O[C@@H](CC4CCCCC4)C(=O)N4CCC4)[C@H]3NC(C)=O)C2)C[C@@H](O[C@@H]2O[C@H](CO)[C@H](O)[C@H](O[C@@H](CC3CCCCC3)C(=O)N3CCC3)[C@H]2NC(C)=O)[C@@H]1O[C@@H]1O[C@@H](C)[C@@H](O)[C@@H](O)[C@@H]1O` [Compound 20]: the Kd came out at 0.8 nM.
